Source: paper PMC9090415, “Discovery of small molecule inhibitors of Plasmodium falciparum apicoplast DNA polymerase” (Journal of Enzyme Inhibition and Medicinal Chemistry, 2022)

Target: P. falciparum apicoplast DNA polymerase (Pf-apPOL) (Plasmodium falciparum, UniProt Q8ILY1)
Assay: Fluorescence-based high-throughput DNA polymerase assay (molecular beacon), primary screen and dose-response
Type: biochemical
Conditions: for DNA Pol: 90 min, 10 µM; for % inhibition apPOL 180' 2.5 / % inhibition apPOL 180' 5 / % inhibition apPOL 180' 10 / % inhibition apPOL 180' 20 / % inhibition apPOL 180' 40 / % inhibition apPOL 180' 80: read at 180'
Method in brief: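 Single-point screening used 10 µM compound with 20 nM polymerase, 20 nM hairpin substrate and 6 µM dNTPs for 90 min at 25 °C. Confirmatory titrations (2.5–80 µM) followed fluorescence at three times, and IC50 was derived from a fit including a cooperativity term n.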

Chain of P. falciparum apicoplast DNA polymerase (Pf-apPOL) (Q8ILY1 entry or part of it): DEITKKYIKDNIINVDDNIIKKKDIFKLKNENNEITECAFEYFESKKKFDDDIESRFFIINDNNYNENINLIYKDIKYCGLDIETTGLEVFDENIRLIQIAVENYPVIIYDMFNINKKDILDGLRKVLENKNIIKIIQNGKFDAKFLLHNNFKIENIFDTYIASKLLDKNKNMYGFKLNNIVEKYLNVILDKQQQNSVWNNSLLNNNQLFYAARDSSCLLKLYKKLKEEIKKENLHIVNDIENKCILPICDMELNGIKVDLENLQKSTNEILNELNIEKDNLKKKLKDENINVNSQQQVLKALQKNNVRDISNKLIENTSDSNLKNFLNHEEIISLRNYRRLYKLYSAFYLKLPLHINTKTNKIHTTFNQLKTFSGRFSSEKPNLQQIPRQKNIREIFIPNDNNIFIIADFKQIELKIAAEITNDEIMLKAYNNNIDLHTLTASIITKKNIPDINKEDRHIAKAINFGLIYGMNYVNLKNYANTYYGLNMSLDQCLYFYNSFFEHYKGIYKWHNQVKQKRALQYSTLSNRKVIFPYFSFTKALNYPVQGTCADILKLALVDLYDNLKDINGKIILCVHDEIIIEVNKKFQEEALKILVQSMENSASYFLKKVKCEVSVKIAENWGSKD

C#CC(C=CC)OC(=O)c1ccccc1C(=O)O (stereo not drawn) [Molecule 61, CC=CC(OC(=O)c1ccccc1C(=O)O)C#C]
DNA Pol (186 hits, DNA Pol (screen value), unit not given): 84
DNA Pol ('DNA Pol' (screen value), unit not given): 84
% inhibition Apo pol 10' 2.5 (DRC-1, read at 10', concentration 2.5): 8.856%
% inhibition Apo pol 10' 5 (DRC-1, read at 10', concentration 5): 15.4135%
% inhibition Apo pol 10' 10 (DRC-1, read at 10', concentration 10): 32.6686%
% inhibition Apo pol 10' 20 (DRC-1, read at 10', concentration 20): 51.5021%
% inhibition Apo pol 10' 40 (DRC-1, read at 10', concentration 40): 73.1045%
% inhibition Apo pol 10' 80 (DRC-1, read at 10', concentration 80): 83.6168%
% inhibition Apol 90' 2.5 (DRC-1, read at 90', concentration 2.5): 1.5571%
% inhibition Apol 90' 5 (DRC-1, read at 90', concentration 5): 4.145%
% inhibition Apol 90' 10 (DRC-1, read at 90', concentration 10): 16.9852%
% inhibition Apol 90' 20 (DRC-1, read at 90', concentration 20): 30.9577%
% inhibition Apol 90' 40 (DRC-1, read at 90', concentration 40): 54.6934%
% inhibition Apol 90' 80 (DRC-1, read at 90', concentration 80): 70.5531%
% inhibition apPOL 180' 2.5 (DRC-1, concentration 2.5): -3.738%
% inhibition apPOL 180' 5 (DRC-1, concentration 5): -3.151%
% inhibition apPOL 180' 10 (DRC-1, concentration 10): 5.1086%
% inhibition apPOL 180' 20 (DRC-1, concentration 20): 14.9685%
% inhibition apPOL 180' 40 (DRC-1, concentration 40): 36.8949%
% inhibition apPOL 180' 80 (DRC-1, concentration 80): 55.2706%
% inhibition Apo pol 5' (DRC-2, concentration 80): 57%
% inhibition Apol 40' (DRC-2, concentration 80): 69%
% inhibition ApPOL 90' (DRC-2, concentration 20): 48%
% inhibition ApPOL 90' (DRC-2, concentration 40): 57%
% inhibition apPOL 180' (DRC-2, concentration 2.5): -4%
% inhibition apPOL 180' (DRC-2, concentration 5): -4%
% inhibition apPOL 180' (DRC-2, concentration 40): 48%
% inhibition apPOL 180' (DRC-2, concentration 80): 69%
% inhibition Apo pol 5' 2.5 (DRC-2, read at 5', concentration 2.5): 3.3%
% inhibition Apo pol 5' 5 (DRC-2, read at 5', concentration 5): 15%
% inhibition Apo pol 5' 10 (DRC-2, read at 5', concentration 10): 33%
% inhibition Apo pol 5' 20 (DRC-2, read at 5', concentration 20): 50%
% inhibition Apo pol 5' 40 (DRC-2, read at 5', concentration 40): 54%
% inhibition Apo pol 5' 80 (DRC-2, read at 5', concentration 80): 57%
% inhibition Apol 40' 2.5 (DRC-2, read at 40', concentration 2.5): 3%
% inhibition Apol 40' 5 (DRC-2, read at 40', concentration 5): 11%
% inhibition Apol 40' 10 (DRC-2, read at 40', concentration 10): 31%
% inhibition Apol 40' 20 (DRC-2, read at 40', concentration 20): 52%
% inhibition Apol 40' 40 (DRC-2, read at 40', concentration 40): 59%
% inhibition Apol 40' 80 (DRC-2, read at 40', concentration 80): 69%
% inhibition ApPOL 90' 2.5 (DRC-2, read at 90', concentration 2.5): 0.76%
% inhibition ApPOL 90' 5 (DRC-2, read at 90', concentration 5): 5.31%
% inhibition ApPOL 90' 10 (DRC-2, read at 90', concentration 10): 26%
% inhibition ApPOL 90' 20 (DRC-2, read at 90', concentration 20): 48%
% inhibition ApPOL 90' 40 (DRC-2, read at 90', concentration 40): 57%
% inhibition ApPOL 90' 80 (DRC-2, read at 90', concentration 80): 71%
% inhibition apPOL 180' 2.5 (DRC-2, concentration 2.5): -4%
% inhibition apPOL 180' 5 (DRC-2, concentration 5): -4%
% inhibition apPOL 180' 10 (DRC-2, concentration 10): 13%
% inhibition apPOL 180' 20 (DRC-2, concentration 20): 35%
% inhibition apPOL 180' 40 (DRC-2, concentration 40): 48%
% inhibition apPOL 180' 80 (DRC-2, concentration 80): 69%

Cc1cccc2c(C(=O)NC(C)C)cc(N(C)C)nc12 [Molecule 47, CC(NC(=O)c1cc(nc2c1cccc2C)N(C)C)C]
DNA Pol ('DNA Pol' of the 186 hits list (primary screen value)): 22
DNA Pol (DNA Pol (primary screen value)): 22
% inhibition Apo pol 10' (DRC-1, concentration 2.5): 6.184%
% inhibition Apo pol 10' (DRC-1, concentration 5): 4.255%
% inhibition Apo pol 10' (DRC-1, concentration 10): 30.9701%
% inhibition Apo pol 10' (DRC-1, concentration 20): 57.6029%
% inhibition Apo pol 10' (DRC-1, concentration 40): 72.1055%
% inhibition Apo pol 10' (DRC-1, concentration 80): 75.9231%
% inhibition Apol 90' (DRC-1, concentration 2.5): 2.22%
% inhibition Apol 90' (DRC-1, concentration 5): 0.7023%
% inhibition Apol 90' (DRC-1, concentration 10): 20.6995%
% inhibition Apol 90' (DRC-1, concentration 20): 44.2849%
% inhibition Apol 90' (DRC-1, concentration 40): 67.2168%
% inhibition Apol 90' (DRC-1, concentration 80): 75.4674%
% inhibition apPOL 180' (DRC-1, concentration 2.5): 2.5191%
% inhibition apPOL 180' (DRC-1, concentration 5): -0.7995%
% inhibition apPOL 180' (DRC-1, concentration 10): 11.775%
% inhibition apPOL 180' (DRC-1, concentration 20): 29.3384%
% inhibition apPOL 180' (DRC-1, concentration 40): 56.4011%
% inhibition apPOL 180' (DRC-1, concentration 80): 69.9021%
% inhibition Apo pol 5' (DRC-2, concentration 2.5): 7%
% inhibition Apo pol 5' (DRC-2, concentration 5): 13%
% inhibition Apo pol 5' (DRC-2, concentration 10): 21%
% inhibition Apo pol 5' (DRC-2, concentration 20): 37%
% inhibition Apo pol 5' (DRC-2, concentration 40): 47%
% inhibition Apo pol 5' (DRC-2, concentration 80): 35%
% inhibition Apol 40' (DRC-2, concentration 2.5): 6.48%
% inhibition Apol 40' (DRC-2, concentration 5): 14%
% inhibition Apol 40' (DRC-2, concentration 10): 25%
% inhibition Apol 40' (DRC-2, concentration 20): 43%
% inhibition Apol 40' (DRC-2, concentration 40): 62%
% inhibition Apol 40' (DRC-2, concentration 80): 58%
% inhibition ApPOL 90' (DRC-2, concentration 2.5): 6%
% inhibition ApPOL 90' (DRC-2, concentration 5): 11%
% inhibition ApPOL 90' (DRC-2, concentration 10): 21%
% inhibition ApPOL 90' (DRC-2, concentration 20): 41%
% inhibition ApPOL 90' (DRC-2, concentration 40): 64%
% inhibition ApPOL 90' (DRC-2, concentration 80): 63%
% inhibition apPOL 180' (DRC-2, concentration 2.5): 1.25%
% inhibition apPOL 180' (DRC-2, concentration 5): 6.35%
% inhibition apPOL 180' (DRC-2, concentration 10): 14%
% inhibition apPOL 180' (DRC-2, concentration 20): 31%
% inhibition apPOL 180' (DRC-2, concentration 40): 60%
% inhibition apPOL 180' (DRC-2, concentration 80): 66%
